Assays:
[1] = tested on: CD-1 mice; experiment: Model of scratching induced by histamine in CD-1 mice (assessment of H4 antagonism); type: in vivo; settings: 30 mg/kg oral gavage 30 min before i.d. histamine; bouts counted for 20 minutes; female CD-1 mice
Experimental: Assessment of H4 Antagonism—Model of Scratching Induced by Histamine in CD-1 mice.
Female CD-1 mice (Charles River, Hollister, Calif.), approximately 10 weeks old were housed under controlled conditions (12 h light: 12 h dark, 21° C.) and allowed ad libitum access to food (Purina LabDiet 5P14) and water. Animals were deprived of access to food and water for 1 hour during the experimental itch protocol. All studies were performed under the guidelines of the Institutional Animal Care and Use Committee of Kalypsys, Inc.
At least 24 hours prior to study initiation, the hair on the rostral dorsum of the animal was clipped to clear a location for intradermal (i.d.) injection of pruritogen (histamine, dissolved in Dulbecco's PBS [pH 7.4] at a concentration of 10 μmol per 20 μL). Animals were dosed by oral gavage with vehicle (9/0.5/0.5/90 PEG-400/Tween-80/PVP-K30/1% carboxymethylcellulose in water) or test compounds (formulated as suspensions in vehicle) at 30 mg/kg in 200 μL by means of a 20 gauge 1.5″ feeding needle affixed to a 1 mL syringe. There were 8 mice per study group. Thirty minutes after oral dosing, animals were injected i.d. with 20 μL of histamine. Immediately afterward animals were placed into individual sections of a standard acrylic cage for observation, which was recorded digitally for a 20 minute period by video cameras (Panasonic SDR-S70/PC) for later review.
Quantitation of induced itch was measured as described previously (Bell, J. K. et al., British Journal of Pharmacology, 142:374-380, 2004) by counting the number of scratching bouts per animal in the 20 minute period after i.d. injection. A scratching bout was defined as three rapid scratch movements of the hind paw in the area of the injection site. Activity with the fore paws was deemed to be grooming and not scratching, and thus was not counted. All data were analyzed using GraphPad Prism (San Diego, Calif.) software, and reported as mean percentage reduction in scratching bouts versus vehicle control. The significance of antagonist effect on agonist-induced itching was analyzed using the nonparametric Mann-Whitney test with P values <0.05 being designated as statistically significant.
Data reported as NT refers to the example having been not tested. It is expected that these compounds when tested will be active and will have utility similar to those that have been tested. In Table 2 below, entries with superscript “1” are statistically significant according to the criteria outlined in the protocol above. Entries with superscript “2” are examples that have been tested on two separate days and the results reported below are the mean of the two experiments

[2] = molecular target: T1, human H1 (Homo sapiens, UniProt P35367); experiment: In vitro histamine receptor cell-based assay (aequorin bioluminescence), H1 antagonism; settings: CHO-K1 cells expressing human H1 and aequorin; histamine at EC80; read-out: H1 Antagonist EC50
T1 construct: host or cells: CHO-K1
Summary of the method: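 Stable CHO-K1 lines expressing human H1 or H4 (H4 with Gα16) plus mitochondrial aequorin, loaded 4 h with 5 μM coelenterazine-h at ~21 °C. Compounds preincubated 15 min, then histamine at EC80 added; bioluminescence decrease (AUC or max–min) expressed as % of positive control (diphenhydramine for H1, JNJ7777120 for H4, 10 μM).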

[3] = molecular target: T2, human H4 (Homo sapiens, UniProt Q9H3N8); experiment: In vitro histamine receptor cell-based assay (aequorin bioluminescence), H4 antagonism; settings: CHO-K1 cells expressing human H4, aequorin and Gα16; histamine at EC80; read-out: H4 Antagonist EC50
T2 construct: host or cells: CHO-K1
Summary of the method: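 CHO-K1 cells stably expressing human H4, Gα16 and mitochondrial aequorin, loaded with 5 μM coelenterazine-h, preincubated 15 min at room temperature with compound, then challenged with histamine at EC80.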

[4] = tested on: Hartley VAF outbred guinea pigs; experiment: Allergic conjunctivitis in passively sensitized guinea pigs (conjunctival EPO activity); type: in vivo; design: key: +: a 0.01% bid dose was statistically equivalent to dexamethasone with respect to reduction of EPO activity; −: the compound was statistically inferior to dexamethasone and not different than vehicle; settings: 0.01% bid topical, 1 hour prior to and 8 hours after ovalbumin challenge; reduction of conjunctival EPO activity vs dexamethasone
Experimental: (§1) Male Hartley VAF outbred guinea pigs were passively sensitized to ovalbumin by a single OD subconjunctival injection of undiluted guinea pig anti-ovalbumin antiserum 24 hours before OD topical challenge with 500 μg ovalbumin in saline. Control animals were injected with saline only and challenged with ovalbumin. To determine acute phase drug efficacy, 30 min after challenge animals were clinically scored by a masked observer for severity of signs of conjunctivitis based on a standard scale. Test compounds were administered topically 1 hour prior to challenge (QD protocol), or 1 hour prior to challenge and again 8 hours after challenge (BID protocol). Twenty-four hours after challenge, animals were euthanized and conjunctivae were harvested for determination of tissue eosinophil peroxidase (EPO) concentration as a marker of allergic inflammation. Homogenates of freshly collected tissues were prepared by shaking the tissues in 2 mL round-bottom tubes containing 0.5 mL of homogenization buffer (50 mM Tris HCl, pH 8.0, 6 mM KBr) and one 5-mm stainless steel bead on a Qiagen TissueLyser at 30 Hz for 5 min. Homogenates were frozen and thawed once, then centrifuged at 10,000 rpm for 5 min. EPO activity in supernatants was measured by reacting diluted homogenates with a solution of 6 mM o-phenylenediamine substrate and 8.8 mM H2O2 in homogenization buffer for 3 min. The reaction was stopped with 4M H2SO4 and absorbances were measured at […] on a spectrophotometric plate reader. Total EPO in samples was calculated from a standard curve of recombinant human EPO in each assay. EPO activity was normalized to total protein concentration (Pierce BCA assay) in supernatants. Background EPO activity was determined from the unsensitized, antigen-challenged control group. Percent inhibition was calculated from the sensitized, antigen-challenged, vehicle-treated control group in each experiment. Ovalbumin-injected animals dosed topically with 0.1% w/v dexamethasone (dex) served as positive control. Groups were compared by ANOVA with Dunnett's or Tukey's post-hoc tests where appropriate with significance assigned at the 95% confidence level.
(§2) The table below summarizes the results.

[5] = tested on: Hartley VAF outbred guinea pigs; experiment: as above; type: in vivo; design: key: +: a ≦0.1% qd dose was statistically equivalent to dexamethasone with respect to reduction of EPO activity; −: the compound was statistically inferior to dexamethasone and not different than vehicle; settings: ≦0.1% qd topical, 1 hour prior to ovalbumin challenge; reduction of conjunctival EPO activity vs dexamethasone
Experimental: as §1, §2

T1 sequence (P35367 whole entry): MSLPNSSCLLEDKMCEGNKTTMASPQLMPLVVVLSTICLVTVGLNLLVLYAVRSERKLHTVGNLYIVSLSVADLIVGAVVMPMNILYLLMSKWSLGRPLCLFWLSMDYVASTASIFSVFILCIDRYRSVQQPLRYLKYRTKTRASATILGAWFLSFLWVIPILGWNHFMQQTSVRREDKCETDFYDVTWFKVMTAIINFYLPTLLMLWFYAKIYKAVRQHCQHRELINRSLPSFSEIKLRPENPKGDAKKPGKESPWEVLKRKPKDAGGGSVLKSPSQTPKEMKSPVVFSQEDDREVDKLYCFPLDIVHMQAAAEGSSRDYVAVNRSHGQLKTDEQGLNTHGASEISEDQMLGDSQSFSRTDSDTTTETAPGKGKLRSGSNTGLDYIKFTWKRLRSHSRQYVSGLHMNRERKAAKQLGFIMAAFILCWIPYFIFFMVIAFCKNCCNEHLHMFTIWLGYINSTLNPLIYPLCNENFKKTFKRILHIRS

| EC50 [2] [µM] | EC50 [3] [µM] | Structure (SMILES) | Scratching Bouts (% change from vehicle control) [1] | BID activity [4] | QD activity [5] |
| --- | --- | --- | --- | --- | --- |
| > 10 | < 10 | Cc1nc2c3cc(Cl)ccc3nc(N3CCN(C)CC3)n2n1 [Example 113, 9-chloro-2-methyl-5-(4-methylpiperazin-1-yl)-[1,2,4]triazolo[1,5-c]quinazoline] | −66^1,2% | − |  |
| > 10 | < 10 | Cc1nc2c3cc(Cl)ccc3nc(N3CCNCC3)n2n1 [Example 112, 9-Chloro-2-methyl-5-(piperazin-1-yl)-[1,2,4]triazolo[1,5-c]quinazoline] | −73^1% |  |  |
| > 10 | < 10 | Cc1nc2c3cc(C(F)(F)F)ccc3nc(N3CCN(C)CC3)n2n1 [Example 103, 2-Methyl-5-(4-methylpiperazin-1-yl)-9-(trifluoromethyl)-[1,2,4]triazolo[1,5-c]quinazoline] | −37% |  | + |

More lines, now with the values behind:

| Structure (SMILES) | EC50 [2] [µM] | EC50 [3] [µM] | Scratching Bouts (% change from vehicle control) [1] | BID activity [4] | QD activity [5] |
| --- | --- | --- | --- | --- | --- |
| CN1CCN(c2nc3ccc(Cl)cc3c3c[nH]nc23)CC1 [Example 152, 8-Chloro-4-(4-methylpiperazin-1-yl)-2H-pyrazolo[3,4-c]quinoline] | > 10 | < 10 | −13% | − |  |
| CN1CCN(c2nc3ccc(Cl)cc3n3nnnc23)CC1 [Example 20, 8-Chloro-4-(4-methylpiperazin-1-yl)tetrazolo[1,5-a]quinoxaline] | > 10 | < 10 | −1% | − |  |

From US20120065187A1 (ALCON RESEARCH, LTD, priority 2008, published 2012)
